Read-outs that look alike come from different tables or passages of the source.
Legend:
[1] = tested on: Aspergillus brasiliensis ATCC 16404; assay: Synergy test: high resolution MIC microtiter plate assay, Potato Dextrose Broth; assay type: cell-based; settings: A. brasiliensis ATCC 16404, PDB, contact time 3 days; for SI (Synergy Index, Qa/QA+Qb/QB): <1 synergy; for MIC: Aspergillus brasiliensis, ATCC16404, 72 h, 25 °C
Excerpt: (§1) One measure of synergism is the industrially accepted method described by Kull, F. C.; Eisman, P. C.; Sylwestrowicz, H. D. and Mayer, R. L., in Applied Microbiology 9:538-541 (1961), using the ratio determined by the formula:
(§2) Qa/QA+Qb/QB=Synergy Index (“SI”)
(§3) wherein: • QA=concentration of compound A (first component) in ppm, acting alone, which produced an end point (MIC of Compound A). • Qa=concentration of compound A in ppm, in the mixture, which produced an end point. • QB=concentration of compound B (second component) in ppm, acting alone, which produced an end point (MIC of Compound B). • Qb=concentration of compound B in ppm, in the mixture, which produced an end point.
(§4) When the sum of Qa/QA and Qb/QB is greater than one, antagonism is indicated. […] The lower the SI, the greater is the synergy shown by that particular mixture. The minimum inhibitory concentration (MIC) of a microbicide is the lowest concentration tested under a specific set of conditions that prevents the growth of the tested microorganisms.
(§5) Synergy tests were conducted using standard microtiter plate assays with media designed for optimal growth of the test microorganism. Potato Dextrose Broth (PDB medium) was used for testing yeast and mold. In this method, a wide range of combinations of microbicides and other personal care raw materials was tested by conducting high resolution MIC assays in the presence of lactic acid. High resolution MICs were determined by adding varying amounts of microbicide to one column of a microtitre plate and doing subsequent […] dilutions using an automated liquid handling system to obtain a series of closely spaced endpoints.
(§6) The synergy of the combinations of the present invention was determined against a yeast, Candida albicans (C. albicans ATCC 10231) and a mold, Aspergillus brasiliensis (A. brasiliensis ATCC 16404). The yeast and mold were used at concentrations of 5×10^5 cells per mL. These microorganisms are representative of natural contaminants in many consumer and industrial applications.
(§7) In this test, First Component (A) was lactic acid and the Second Component (B) was phenethyl alcohol.
• Aspergillus brasiliensis • ATCC 16404 • Potato Dextrose Broth • Contact Time=3 days

[2] = tested on: Candida albicans ATCC 10231; assay: as above; assay type: cell-based; settings: C. albicans ATCC 10231, PDB, contact time 48 hours; for SI (Synergy Index, Qa/QA+Qb/QB): <1 synergy; for MIC: Candida albicans, ATCC10231, 25 °C
Excerpt: as §1, §2, §3, §4, §5, §6, §7
• Candida albicans • ATCC 10231 • Potato Dextrose Broth • Contact Time=48 hours

[3] = read-out: MIC for lactic acid alone (QA)
[4] = read-out: MIC for phenethyl alcohol alone (QB)

Compound | SI (Synergy Index, Qa/QA+Qb/QB) [1] | MIC [1, 3] [mg/mL] | SI (Synergy Index, Qa/QA+Qb/QB) [2] | MIC [2, 3] [µg/mL] | MIC [1, 4] [mg/mL] | MIC [2, 4] [µg/mL]
CC(O)C(=O)O (centres unmarked) [Lactic Acid, 2-hydroxypropanoic acid] | 1.00 | 30 | 1.00 | 6000 |  | 
OCCc1ccccc1 [Phenethyl Alcohol, 2-phenylethan-1-ol] | 1.00 |  | 1.00 |  | 10 | 10000

From US20200138020A1, “MICROBICIDAL COMPOSITION” (DDP Specialty Electronic Materials US 8, LLC, priority 2017, published 2020)
